Laboratory results published in patent publication US20090196854A1, “METHODS AND COMPOSITIONS FOR USE OF CRL 5803 CELLS FOR EXPRESSION OF BIOTHERAPEUTICS AND ENCAPSULATED CELL-BASED DELIVERY” (priority 2008, published 2009).
Like-named read-outs stand apart in the source and are kept apart here. Blank lines part the entries; values can stand above or below the compound they belong to.

Experiments:
CRL1440 polyclones = test: Zeocin dose-response of growth in BBP-transfected polyclones
ARPE-19 polyclone = test: as above; type: cell-based, human
CCL205 polyclone = conditions: CMV promoter polyclone
Description: (§5) In an effort to address this issue we used plasmids we had constructed that used either of three viral promoter/enhancers: CMV, SV40, or RSV. These viral regulatory elements were used to direct the expression of the selectable marker for Zeocin, a bleomycin binding protein (BBP) that inactivates the drug by binding, rather than enzymatic degradation. The resistant colonies produced by these transfections were grown as polyclones for each different promoter.
The growth of CCL205 cells was slow enough that for IC50 calculations the final viable mass was used rather than growth.

CCL205 = type: cell-based, human
Description: (§1) The cell lines were plated in 48 well plates at an appropriate dilution of cells for each cell line to provide for rapid entry into log phase of growth. The various concentrations of the selection drugs were added so that the drugs were present at the initiation of log phase growth and viable cells were determined after 7-10 days of culture. The screening used data for functional mass at the end of the study to express viable cells as a percentage of the vehicle, or no-treatment control wells. […] The % viable cell mass data was plotted, and fitted typically with a four-parameter equation. The fitted equation was used to calculate the IC50 dose. The drugs tested were G418 (inactivated by neomycin phophotransferase, NPT), hygromycin (inactivated by hygromycin phosphotansferse, HPT), blasticidin (inactivated by blasticidin deaminase, BSD), and zeocin (bound by bleomycin binding protein, BBP). These antibiotics were obtained from Invitrogen/Gibco (Invitrogen SA, Barcelona).
(§2) The drugs, G418, Zeocin, hygromycin, and blasticidin were obtained and used as described earlier. The most important aspect of these studies was to identify the concentration needed to kill all non-transfected cells.

CRL5803 = type: cell-based, human
Description: as §1, §2

ARPE-19 = type: cell-based, human
Description: as §1, §2

CRL1440 = type: cell-based, human
Description: as §1, §2

BON cell line = test: 5-FU cytotoxicity screen; type: cell-based; conditions: Homo sapiens, neutral red endpoint after 5-7 days, read-out: concentration required to kill 50% of the cells
Description: Drug Exposure and elimination of BON cell line: The drug 5-FU was dissolved in DMSO at a concentration of 0.5 M, and this stock used to make media with micromolar concentrations of the drug ([…]). Cells plated in 24 or 48 well plates in growth phase were cultured with 5-FU supplemented medium for 1-2 weeks. […] This growth measurement was conducted during exposure and if cells grew or survived, growth was followed in the weeks subsequent to removal of 5-FU.
In initial screening, an endpoint assay of viability was performed with the uptake of neutral red (50 μg/ml for 1 h) after 5-7 days, later studies of the selected cell lines used resazurin to monitor growth, as well as viable cell mass.

A2058 = test system: A2058
Description: (§3) The newly selected cell types were then screened for r sensitivity to 5-fluorouracil (5-FU). This screening was accomplished by plating the cell lines in 48 well plates, and after overnight attachment adding varying concentrations of 5-FU from 0-500 μM. The growth of the cells was then monitored at 1-2 day intervals with the fluorescent substrate resazurin.

[1] = test system: all cell lines except for ARPE-19 and A2058 (CRL 5803, CCL-205, CRL1440); test: sensitivity to 5-FU, growth monitored with resazurin; type: cell-based, human; conditions: all cell lines except ARPE-19 and A2058
ARPE-19 cells [2] = test: as above
Description: as §3

K3.3 = test: 5FC and 5FU dose-response in BDNF-expressing CRL 5803 line and CD transfectants; type: cell-based; conditions: Homo sapiens
Description: (§4) CRL 5803 cells expressing BDNF and CD: The CRL 5803 cell line was transfected with BDNF and clones expressing BDNF were selected. These selected clones were expanded to provide cells for transfections with cytosine deaminase plasmid (CX014). Four CD gene transfection studies were performed with three different BDNF-expressing cell lines. For each cell line at least 24 resistant clones were picked and screened for sensitivity to 100 μM 5FC. The clones with the lowest survival in 5FC (as percent of control wells) were then expanded for dose-response studies with 5FC and 5FU. Cytotoxicity of 5FC was used as an indication of CD gene expression, and this screen provided 6-9 clones per transfection. The IC50 for 5FU indicated the maximum potential cytotoxicity of the prodrug, 5FC, in cells expressing sufficient levels of CD gene and protein.

K3.4 = test: as above; type: cell-based; conditions: Homo sapiens
Description: as §4

K3.31 = test: as above; type: cell-based; conditions: Homo sapiens
Description: as §4

CRL5816 cells = test: 5FC sensitivity of cells expressing WT-CD transgene; type: cell-based; conditions: Homo sapiens
HT1080 cells (CD clone) = test: 5FC sensitivity of cells expressing WT CD gene; type: cell-based, human
Text: HT1080 cells and CD Expression, The HT1080 cell line was obtained from the ATCC and transfected with the WT CD gene of the present invention. A clone was isolated that had high expression of immunoreactive CD. […] This represents toxicity at about 100-fold lower concentrations of 5FC than achieved by others with HT1080 cells (Dachs, et al., Nature Medicine 3:515-20, 1997).

[3] = test system: human kidney cells 293 cells; test: 5FC sensitivity of cells expressing WT-CD transgene; type: cell-based; conditions: HEK293, 293 cells expressing WT-CD transgene
human colon tumor cells = test: as above; type: cell-based
ARPE-19 cells [4] = test: 5FC sensitivity of cells transfected with CD gene; type: cell-based, human; conditions: ARPE-19 transfected with CD gene
Text: ARPE-19 and CD Expression. […] The purpose of the screen was to eliminate 5FU-resistant cells with the expectation that it would be difficult to use CD as a kill system in such cells. We conclude that lack of cytotoxicity with CD transgene and 5FC treatment in these cells is, at least in part, due to the insensitivity of these cells to 5FU cytotoxicity. The 5-FC and CD cell suicide safety system may not readily be an effective safety system with ARPE-19 cells.

Description for CRL 5803 polyclones: as §5

Structure (SMILES): Cc1c(N)nc([C@H](CC(N)=O)NC[C@H](N)C(N)=O)nc1C(=O)N[C@H](C(=O)N[C@H](C)[C@@H](O)[C@H](C)C(=O)N[C@H](C(=O)NCCC1=N[C@@H](c2nc(C(=O)NCCCCN=C(N)N)cs2)CS1)[C@@H](C)O)[C@@H](O[C@@H]1O[C@@H](CO)[C@@H](O)[C@H](O)[C@@H]1O[C@H]1O[C@H](CO)[C@@H](O)[C@H](OC(N)=O)[C@@H]1O)c1cnc[nH]1 [Zeocin]
- IC50 for growth in Zeocin (CRL1440 polyclones; CMV plasmids): 2395 µg/mL
- IC50 for growth in Zeocin (CRL1440 polyclones; SV40 promoter plasmid): 959 µg/mL
- shift in resistance compared to cells with no Zeocin-resistance gene (ARPE-19 polyclone; CMV promoter): ~8 fold
- IC50 for growth in Zeocin (ARPE-19 polyclone; CMV promoter-BBP polyclone): 399 µg/mL
- IC50 for Zeocin (final viable mass) (CCL205 polyclone): 27 µg/mL
- concentration found to kill non-transfected cells (CCL205): <20 µg/mL
- concentration found to kill non-transfected cells (CRL5803): 500 µg/mL
- concentration found to kill non-transfected cells (ARPE-19): 50 µg/mL
- concentration found to kill non-transfected cells (CRL1440): 100 µg/mL
- growth IC50 in Zeocin (CRL 5803 polyclones; CRL 5803, CMV promoter-BBP): 2700 µg/mL
- growth IC50 in Zeocin (CRL 5803 polyclones; CRL 5803, RSV promoter-BBP): 2400 µg/mL
- growth IC50 in Zeocin (CRL 5803 polyclones; CRL 5803, SV40 promoter plasmid): 2800 µg/mL
- increase in the growth IC50 (CRL 5803 polyclones; CRL 5803, all promoters): ~5 fold
- doses at which cytotoxicity was evident (CRL 5803 polyclones; CRL 5803 CMV promoter polyclone, dose range extended to 5000 μg/ml): > 3000 µg/mL

Structure (SMILES): O=c1[nH]cc(F)c(=O)[nH]1 [5-FU, 5-fluorouracil]
- IC50 (BON cell line): ≥ 500 µM
- 5-FU concentration at which killing began (A2058): > 500 µM
- 5-FU concentration that did not affect the cell line (A2058): < 10 µM
- 5-FU concentrations with dominantly cytostatic response (A2058): 10 to 100 µM
- concentration of 5-FU that resulted in 50% killing [1]: < 35 µM
- 5-FU concentrations that slowed growth (ARPE-19 cells [2]): > 5 µM
- 5-FU doses with killing and growth arrest (ARPE-19 cells [2]): > 10 µM
- doubling time after 5-FU exposure (ARPE-19 cells [2]): 60 h
- lethal dose of 5-FU (ARPE-19 cells [2]): 500 µM
- effect of 100 μM 5-FU (ARPE-19 cells [2]; ARPE-19, 2 weeks of exposure): not a lethal dose
- IC50 (K3.3; K3.3, read-out: IC50 for 5FU): 5 ± 1 µM
- IC50 (K3.4; read-out: IC50 for 5-FU): 8.5 ± 0.3 µM
- IC50 (K3.31; K3.31, read-out: IC50 for 5FU): 9 ± 1 µM

- IC50 (CRL5816 cells): 48 µM
- IC50 (HT1080 cells (CD clone); Homo sapiens, HT-1080, HT1080 clone with high expression of immunoreactive CD, dominantly growth arrest): 110 µM
- IC50 (human colon tumor cells): 45 µM
- IC50 (K3.3; K3.3 transfected with CD gene, read-out: 5FC IC50): 14 ± 2 µM
- IC50 (K3.4; independent second transfection with the CD gene, read-out: 5FC IC50): 67 ± 8 µM
- IC50 (K3.4; one of the transfections with the CD gene, read-out: 5FC IC50): 79 ± 9 µM
- IC50 (K3.31; K3.31 transfected with CD gene, read-out: 5FC IC50): 21 ± 2 µM
Structure (SMILES): Nc1nc(=O)[nH]cc1F [5FC, 5-fluorocytosine]
- fold lower toxic concentration of 5FC than achieved by others with HT1080 cells (HT1080 cells (CD clone); versus Dachs et al. 1997): about 100 fold
- IC50 [3]: 55 µM
- sensitivity of CD-transfected clones to 5FC (ARPE-19 cells [4]): unable to isolate clones that were sensitive to 5FC
